Among the data in patent US9561228B2 (Celgene Avilomics Research, Inc., priority 2013, dated 2017) are EC50 and GI50 values, retold here.

Common to all, as to type: cell-based
The subject of assay [1] is ERK1/2 phosphorylation of p90RSK in HT29 cells. The assay is described as follows: pRSK MSD Assay in HT29 cells. Particulars: Homo sapiens, HT-29, read-out: ERK1/ERK2 PRSK MSD HT29 EC50. Put shortly: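 Serum-starved HT29 cells (0.1% FBS overnight) treated with test compound for 120 min at 37° C, then lysed with protease and phosphatase inhibitors. Phospho-p90RSK quantified by MSD sandwich immunoassay: RSK capture antibody, phospho-RSK detection antibody plus Sulfo-tagged antibody, electrochemiluminescence read.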

The test system of assay [2] is A375 cells (malignant melanoma). The assay is described as follows: Inhibition of cancer cell proliferation, A375 (CellTiterGlo, 72 hours). To be noted: Homo sapiens, A-375. In outline: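 A375 melanoma cells, 3000/well, exposed 72 h at 37 °C to compound in 3-fold serial dilutions (solution added as 2× stock starting at 5,000 nM in serum-free DMEM). CellTiterGlo luminescence converted to cell number via standard curve; % inhibition vs untreated control, GI50 from curve fit.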
(Cellular ATP, detected with luciferase, serves as a proxy for viable cell number.)

Assay [3] concerns ERK1/2 phosphorylation of p90RSK in HCT116 cells. Briefly: Detection of total and phospho-RSK by MSD ELISA (HCT116). To be noted: Homo sapiens, HCT-116, read-out: ERK1/ERK2 PRSK HCT116 EC50. Put shortly:
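HCT116 cells treated with compound in RPMI/10% FBS for 2 h at 37° C, then lysed. Phospho-RSK (Ser380) and total RSK in lysates measured by MSD sandwich electrochemiluminescence ELISA as a readout of ERK1/2 activity.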

A value given as a limit tells only on which side of the number the result lay.

With `C=CC(=O)Nc1cc(C)ccc1Nc1nc(Nc2nc(OC)ncc2C)ncc1C(F)(F)F` [Compound I-347, N-(2-((2-((2-methoxy-5-methylpyrimidin-4-yl)amino)-5-(trifluoromethyl)pyrimidin-4-yl)amino)-5-methylphenyl)acrylamide], the values for the EC50 in assay [1] and in assay [3] were < 100 nM and 101 to 500 nM, respectively. In addition, in assay [2], the GI50 is < 100 nM.
Consider `C=CC(=O)Nc1cc(C)ccc1Nc1nc(Nc2ccnc3ccccc23)ncc1C(F)(F)F` [Compound I-379, N-(5-methyl-2-((2-(quinolin-4-ylamino)-5-(trifluoromethyl)pyrimidin-4-yl)amino)phenyl)acrylamide], for which the EC50 in assay [1] was < 100 nM; in assay [3], 501 to 999 nM. The same compound had a concentration for 50% growth inhibition (GI50) in assay [2] of 101 to 500 nM.
For `C=CC(=O)Nc1cc(C)ccc1Nc1nc(Nc2cc(OC)nc(N3CCN(C(C)=O)CC3)c2)ncc1C(F)(F)F` [Compound I-93, N-(2-((2-((2-(4-Acetylpiperazin-1-yl)-6-methoxypyridin-4-yl)amino)-5-(trifluoromethyl)pyrimidin-4-yl)amino)-5-methylphenyl)acrylamide], in that order: < 100 nM, < 100 nM and < 100 nM.
Regarding `C=CC(=O)Nc1cc(OCC(N)=O)ccc1Nc1nc(Nc2cc(OC)ncc2C)ncc1C(F)(F)F` [Compound I-398, N-(5-(2-amino-2-oxoethoxy)-2-((2-((2-methoxy-5-methylpyridin-4-yl)amino)-5-(trifluoromethyl)pyrimidin-4-yl)amino)phenyl)acrylamide], the EC50 in assay [1] and in assay [3] was < 100 nM throughout. Also, the 50% growth inhibitory concentration (GI50) in assay [2] is < 100 nM.
`C=CC(=O)Nc1cc(C)c(F)cc1Nc1nc(Nc2nc(OC)ncc2Cl)ncc1C(F)(F)F` [Compound I-374, N-(2-((2-((5-chloro-2-methoxypyrimidin-4-yl)amino)-5-(trifluoromethyl)pyrimidin-4-yl)amino)-4-fluoro-5-methylphenyl)acrylamide]: the EC50 in assay [1] and in assay [3] was < 100 nM in each case. In addition, the 50% growth inhibitory concentration (GI50) in assay [2] was < 100 nM.
On to `C=CC(=O)Nc1cc(C)ccc1Nc1nc(Nc2ncc(F)c(OC)n2)ncc1C(F)(F)F` [Compound I-356, N-(2-((2-((5-fluoro-4-methoxypyrimidin-2-yl)amino)-5-(trifluoromethyl)pyrimidin-4-yl)amino)-5-methylphenyl)acrylamide], for which the values for the EC50 in assay [1] and in assay [3] were 101 to 500 nM and 501 to 999 nM, respectively. In assay [2], this compound showed a GI50 of 501 to 999 nM.
For `C=CC(=O)Nc1cc(C)ccc1Nc1nc(Nc2nc(OC)ncc2C#N)ncc1C(F)(F)F` [Compound I-346, N-(2-((2-((5-cyano-2-methoxypyrimidin-4-yl)amino)-5-(trifluoromethyl)pyrimidin-4-yl)amino)-5-methylphenyl)acrylamide], the EC50 in assay [1] and in assay [3] was 101 to 500 nM each time. The GI50 in assay [2] lay in the range of 101 to 500 nM.
Turning to `C=CC(=O)Nc1cc(C)ccc1Nc1nc(Nc2cc(OC)cnc2Cl)ncc1C(F)(F)F` [Compound I-361, N-(2-((2-((2-chloro-5-methoxypyridin-3-yl)amino)-5-(trifluoromethyl)pyrimidin-4-yl)amino)-5-methylphenyl)acrylamide], the EC50 in assay [1] was < 100 nM; in assay [3], 101 to 500 nM. The concentration for 50% growth inhibition (GI50) in assay [2] lay within 101 to 500 nM.
For the compound `C=CC(=O)Nc1cc(C)ccc1Nc1nc(Nc2nc(OC)ncc2C(F)(F)F)ncc1C(F)(F)F` [Compound I-355, N-(2-((2-((2-methoxy-5-(trifluoromethyl)pyrimidin-4-yl)amino)-5-(trifluoromethyl)pyrimidin-4-yl)amino)-5-methylphenyl)acrylamide], the EC50 in assay [1] and in assay [3] was 101 to 500 nM each time. In assay [2], the GI50 lay within 101 to 500 nM.
In the case of `C=CC(=O)Nc1cc(C)ccc1Nc1nc(Nc2nc(OC)ncc2F)ncc1C(F)(F)F` [Compound I-357, N-(2-((2-((5-fluoro-2-methoxypyrimidin-4-yl)amino)-5-(trifluoromethyl)pyrimidin-4-yl)amino)-5-methylphenyl)acrylamide], the EC50 in assay [1] and in assay [3] was 101 to 500 nM throughout. In assay [2], this compound had a GI50 of 101 to 500 nM.
Regarding `C=CC(=O)Nc1cc(CN2CCN(C(C)=O)CC2)ccc1Nc1nc(Nc2cc(OC)ncc2C)ncc1C(F)(F)F` [Compound I-381, N-(5-((4-acetylpiperazin-1-yl)methyl)-2-((2-((2-methoxy-5-methylpyridin-4-yl)amino)-5-(trifluoromethyl)pyrimidin-4-yl)amino)phenyl)acrylamide], the EC50 in assay [1] and in assay [3] was < 100 nM in each case. This compound yielded a concentration for 50% growth inhibition (GI50) in assay [2] of 101 to 500 nM.
On to `C=CC(=O)Nc1cc(C)ccc1Nc1nc(Nc2nc(O)ncc2C)ncc1C(F)(F)F` [Compound I-364, N-(2-((2-((2-hydroxy-5-methylpyrimidin-4-yl)amino)-5-(trifluoromethyl)pyrimidin-4-yl)amino)-5-methylphenyl)acrylamide], for which the EC50 in assay [1] was < 100 nM; in assay [3], 101 to 500 nM. Also, in assay [2], the 50% growth inhibitory concentration (GI50) was < 100 nM.
With `C=CC(=O)Nc1cc(C)ccc1Nc1nc(Nc2cc(OCCO)ncc2C)ncc1C(F)(F)F` [Compound I-376, N-(2-((2-((2-(2-hydroxyethoxy)-5-methylpyridin-4-yl)amino)-5-(trifluoromethyl)pyrimidin-4-yl)amino)-5-methylphenyl)acrylamide], the EC50 in assay [1] and in assay [3] was < 100 nM each time. The compound also had a GI50 in assay [2] of 101 to 500 nM.
Regarding `C=CC(=O)Nc1cc(CCC(N)=O)ccc1Nc1nc(Nc2cc(OC)ncc2C)ncc1C(F)(F)F` [Compound I-400, N-(5-(3-amino-3-oxopropyl)-2-((2-((2-methoxy-5-methylpyridin-4-yl)amino)-5-(trifluoromethyl)pyrimidin-4-yl)amino)phenyl)acrylamide], the EC50 in assay [1] and in assay [3] was < 100 nM in each case. In addition, the concentration for 50% growth inhibition (GI50) in assay [2] fell in the range of 101 to 500 nM.
As to `C=CC(=O)Nc1cc(C)ccc1Nc1nc(Nc2nc(OC)ncc2OC)ncc1C(F)(F)F` [Compound I-349, N-(2-((2-((2,5-dimethoxypyrimidin-4-yl)amino)-5-(trifluoromethyl)pyrimidin-4-yl)amino)-5-methylphenyl)acrylamide], the EC50 in assay [1] and in assay [3] was 101 to 500 nM in each case. The GI50 in assay [2] fell in the range of 101 to 500 nM.

One may read the GI50 as the concentration at which growth is held to half of that of the control.
